Measured values reported in ChEMBL document CHEMBL3217689, “Synthesis and antiplasmodial evaluation of aziridine(iso)quinoline hybrids and their ring-opening products” (Medchemcomm, 2013).

Legend:
[1] = Resistance index, ratio of IC50 for chloroquine-resistant Plasmodium falciparum Dd2 to IC50 for chloroquine-sensitive Plasmodium falciparum NF54
Plasmodium falciparum [2] = assay: Antiplasmodial activity against chloroquine-sensitive Plasmodium falciparum NF54 by LDH assay; assay type: functional, organism-based
CHO = assay: Cytotoxicity against CHO cells by MTT assay; assay type: cell-based; conditions: Cricetulus griseus
[3] = Selectivity index, ratio of IC50 for CHO cells to IC50 for chloroquine-sensitive Plasmodium falciparum NF54; assay type: toxicity, cell-based; conditions: hamster; read-out: Ratio IC50
Plasmodium falciparum [4] = assay: Antiplasmodial activity against chloroquine-resistant Plasmodium falciparum Dd2 by LDH assay; assay type: functional, organism-based

SMILES	IC50 (Plasmodium falciparum [2]) [µM]	further results
OCC(COc1cccc2cnccc12)NCc1ccccc1 (configuration not stated)	6.81	Ratio IC50 [1]: 2.58; IC50 (CHO): 148 µM; selectivity ratio [3]: 21.8; IC50 (Plasmodium falciparum [4]): 17.6 µM
Cn1nc(C(F)(F)F)cc1OCC1CN1Cc1cnc2ccccc2c1 (configuration not stated)	> 27.6	
Cn1nc(C(F)(F)F)cc1OCC1CN1Cc1cc2ccccc2nc1Cl (configuration not stated)	> 25.2	
Cn1nc(C(F)(F)F)cc1OCC1CN1Cc1ccnc2ccccc12 (configuration not stated)	9.66	
Cn1nc(C(F)(F)F)cc1OCC(CO)NCc1cnc2ccccc2c1 (configuration not stated)	4.73	IC50 (CHO): 181 µM; selectivity ratio [3]: 38.3; IC50 (Plasmodium falciparum [4]): 15.2 µM
Cn1nc(C(F)(F)F)cc1OCC(CO)NCc1cc2ccccc2nc1Cl (configuration not stated)	> 24.1	
COCC(COc1cc(C(F)(F)F)nn1C)NCc1cc2ccccc2nc1Cl (configuration not stated)	17	
COCC(COc1cc(C(F)(F)F)nn1C)NCc1cc2ccccc2nc1OC (configuration not stated)	> 23.6	
O=c1nc(C(F)(F)F)ccn1CC1CN1Cc1cnc2ccccc2c1 (configuration not stated)	> 27.8	
O=c1nc(C(F)(F)F)ccn1CC1CN1Cc1cc2ccccc2nc1Cl (configuration not stated)	9.12	
O=c1c(Cl)c(Cl)cnn1CC1CN1Cc1cnc2ccccc2c1 (configuration not stated)	12.7	
O=c1c(Cl)c(Cl)cnn1CC1CN1Cc1cc2ccccc2nc1Cl (configuration not stated)	22.8	
O=c1c(Cl)c(Cl)cnn1CC1CN1Cc1ccnc2ccccc12 (configuration not stated)	26.9	
O=c1c(Cl)c(Cl)cnn1CC(CO)NCc1cnc2ccccc2c1 (configuration not stated)	15.3	
O=c1c(Cl)c(Cl)cnn1CC(CO)NCc1cc2ccccc2nc1Cl (configuration not stated)	15	
O=c1c(Cl)c(Cl)cnn1CC(CO)NCc1ccnc2ccccc12 (configuration not stated)	24.5	
COCC(Cn1ncc(Cl)c(Cl)c1=O)NCc1ccnc2ccccc12 (configuration not stated)	14.5	
c1ccc(CN2CC2COc2cccc3cnccc23)cc1 (configuration not stated)	9.99	
Clc1ccc(CN2CC2COc2cccc3cnccc23)cc1 (configuration not stated)	> 30.8	
Fc1ccc(CN2CC2COc2cccc3cnccc23)cc1 (configuration not stated)	15.9	

SMILES	IC50 (Plasmodium falciparum [2]) [µM]	further results
Clc1ccccc1CN1CC1COc1cccc2cnccc12 (configuration not stated)	12.9	
COc1ccc(CN2CC2COc2cccc3cnccc23)cc1 (configuration not stated)	9.99	
Clc1ccc(CN2CC2COc2cccc3cnccc23)c(Cl)c1 (configuration not stated)	> 27.8	
FC(F)(F)c1ccc(CN2CC2COc2cccc3cnccc23)cc1 (configuration not stated)	> 27.9	
COc1ccccc1CN1CC1COc1cccc2cnccc12 (configuration not stated)	5.29	Ratio IC50 [1]: 1.6; IC50 (CHO): 52.3 µM; selectivity ratio [3]: 9.88; IC50 (Plasmodium falciparum [4]): 8.46 µM
OCC(COc1cccc2cnccc12)NCc1ccc(Cl)cc1 (configuration not stated)	22.8	
OCC(COc1cccc2cnccc12)NCc1ccc(Cl)cc1Cl (configuration not stated)	> 26.5	
OCC(COc1cccc2cnccc12)NCc1ccc(C(F)(F)F)cc1 (configuration not stated)	11.7	
COCC(COc1cccc2cnccc12)NCc1ccccc1 (configuration not stated)	13	
COCC(COc1cccc2cnccc12)NCc1ccc(F)cc1 (configuration not stated)	24.4	
COCC(COc1cccc2cnccc12)NCc1ccccc1Cl (configuration not stated)	16.5	
COCC(COc1cccc2cnccc12)NCc1ccc(OC)cc1 (configuration not stated)	> 28.4	
COCC(COc1cccc2cnccc12)NCc1ccccc1OC (configuration not stated)	> 28.4	
c1ccc(CNC(CNc2ccccc2)COc2cccc3cnccc23)cc1 (configuration not stated)	4.69	Ratio IC50 [1]: 1.75; IC50 (CHO): 237 µM; selectivity ratio [3]: 50.5; IC50 (Plasmodium falciparum [4]): 8.21 µM
Clc1ccc(CNC(CNc2ccccc2)COc2cccc3cnccc23)cc1 (configuration not stated)	10.5	
[Br-].c1ccc(CN2CC2COc2cccc3c[n+](Cc4ccccc4)ccc23)cc1 (configuration not stated)	1.09	Ratio IC50 [1]: 0.94; IC50 (CHO): 51.8 µM; selectivity ratio [3]: 47.7; IC50 (Plasmodium falciparum [4]): 1.02 µM
BrC(COc1cccc2c[n+](Cc3ccccc3)ccc12)CN(Cc1ccccc1)Cc1ccccc1.[Br-] (configuration not stated)	0.22	Ratio IC50 [1]: 5.32; IC50 (CHO): 45.1 µM; selectivity ratio [3]: 205; IC50 (Plasmodium falciparum [4]): 1.17 µM
C[C@H]1[C@H](OC(=O)CCC(=O)O)O[C@@H]2O[C@@]3(C)CC[C@H]4[C@H](C)CC[C@@H]1[C@@]24OO3 [ARTESUNATE]	0.02	
CC[C@H]1CN2CCc3cc(OC)c(OC)cc3[C@@H]2C[C@@H]1C[C@H]1NCCc2cc(OC)c(OC)cc21 [EMETINE]		IC50 (CHO): 0.4 µM
